From patent US8344163B2, “Nitrile compound and its use for control of arthropod pest” (Sumitomo Chemical Company, Limited, priority 2008, dated 2013)

The molecules below were run on Blattalla germanica (assay: Test Example 5: filter paper with sucrose bait, Blattalla germanica male imagoes). Details: 500 ppm active ingredient, 0.7 ml on filter paper; 2 male imagoes; after 6 days.
Assay type: in vivo
Method: A formulation of any one of the present compounds (1t), (1c), (3), (4), (7) and (8) obtained according to Formulation Example 16 was diluted with water to prepare a test solution having 500 ppm of the active ingredient.
A filter paper having a diameter of 5.5 cm was spread on the bottom of a polyethylene cup having a diameter of 5.5 cm and 0.7 ml of the test solution was added dropwise onto the filter paper. As a bait, 30 mg of sucrose was uniformly placed on the filter paper. Into the polyethylene cup, 2 male imagoes of Blattalla germanica were released and the cup was sealed with a lid. After 6 days, the number of surviving or dead Blattalla germanica was counted and the death rate of the pest was calculated.

| SMILES | pest death rate [%] |
| --- | --- |
| C#C[C@H]1CC[C@@H](CC(C#N)(C#N)CCC(F)(F)F)CC1 [(1c)] | 100 |
| C#C[C@H]1CC[C@H](CC(C#N)(C#N)CCC(F)(F)F)CC1 [(1t)] | 100 |
| C#CC1(F)CCC(CC(C#N)(C#N)CCC(F)(F)F)CC1 (stereo not drawn) [(3)] | 100 |
| C#CC12CCC(CC(C#N)(C#N)CCC(F)(F)F)CC1O2 (stereo not drawn) [(4)] | 100 |
| C#CC1(F)CCC(CCC(C#N)(C#N)CCC(F)(F)F)CC1 (stereo not drawn) [(7)] | 100 |
| CON=C1CCC(CC(C#N)(C#N)CCC(F)(F)F)CC1 (stereo not drawn) [(8)] | 100 |
